The target of the experiment is T1, human SK3 channel (hKCa2.3) (Homo sapiens, UniProt Q9UGI6).
T1 construct: expressed in transfected cells
Nature of the experiment: Automated whole cell patch-clamp (QPatch 16 HT), inhibition of SK3 current. The experiment is classed as cell-based. The conditions noted are these: HEK-293 cells stably expressing hKCa2.3; symmetrical K+ solutions, free calcium 400 nM; effects normalized to N-methyl bicuculline. Here is the method:
Automated whole cell patch-clamp recordings were performed using a QPatch 16 HT system and single-hole Qplates (Biolin Scientific, Sophion, Denmark) on HEK-293 cells stably expressing the human SK3 channel (hKCa2.3). Cells were cultured and prepared for experiments using normal cell culturing procedures. A total of 4-5 million cells were used per experiment. The Qpatch automatically generates giga sealing, whole-cell formation, compound application and recording of current. hKCa2.3 currents were recorded in symmetrical K^+ solutions, with an intracellular solution consisting of in mM: KCl 108; KOH/EGTA (ethylene glycol-bis(2-aminoethylether)-N,N,N′,N′-tetraacetic acid) 31.25/10; CaCl2) 8.1; MgCl2 1.2; HEPES (2-[4-(2-hydroxyethyl)piperazin-1-yl]ethanesulfonic acid) 10; KOH 15, pH adjusted to pH=7.2 with HCl. The free calcium concentration was calculated to 400 nM. The extracellular solution consisted of in mM: KCl 150; CaCl2) 0.1; MgCl2 3; HEPES 10; Glucose 10, pH=7.4 with KOH. The cells were held at 0 mV and hKCa2.3 currents were elicited by a linear voltage ramp from […] (200 ms in duration) applied every 5th second. The compound application protocol consisted of 12 recording periods lasting from 50-200 s: 1) Baseline recordings in extracellular solution; 2) Application of the positive control N-methyl bicuculline (100 μM), which is characterized by full efficacy, fast on- and off-rate; 3-4) Wash-out; 5-9) Increasing concentrations of test compound to establish an IC50 value; 10-11) Wash-out; 12) positive control with compound NS8593 (N-[(1R)-1,2,3,4-tetrahydro-1-naphthalenyl]-1H-benzimidazol-2-amine) (1 μM). Data were sampled at 10 kHz, 4th order Bessel filter, cut-off frequency 3 kHz. Currents were compensated for run-down. Potency was quantified as the concentration needed to inhibit half of the SK channel activity and reported as an IC50 value. All effects of compounds of the present invention as tested were normalized to the observed inhibitory effect of N-methyl bicuculline.
A general note: The patch-clamp technique gives a direct electrical read-out from membranes.
In the case of `CCNC(=O)OCCNC(=O)CC(Nc1nc2ccccc2[nH]1)c1cccc(C(F)(F)F)c1` (centres unmarked) [Example 63, 2-{3-[(1H-1,3-benzodiazol-2-yl)amino]-3-[3-(trifluoromethyl)phenyl]propanamido}ethyl N-ethylcarbamate], the IC50 was < 10 µM.
Turning to `O=C(CC(Nc1nc2ccccc2[nH]1)c1cccc(OC(F)(F)F)c1)NCc1nc2ccccc2o1` (centres unmarked) [Example 90, 3-[(1H-1,3-benzodiazol-2-yl)amino]-N-(1,3-benzoxazol-2-ylmethyl)-3-[3-(trifluoromethoxy)phenyl]propanamide], the IC50 was < 10 µM.
As to `Cc1cc(C(CC(=O)NCC#N)Nc2nc3ccccc3[nH]2)cc(C)c1F` (centres unmarked) [Example 86, 3-[(1H-1,3-benzodiazol-2-yl)amino]-N-(cyanomethyl)-3-(4-fluoro-3,5-dimethylphenyl)propanamide], the IC50 is < 10 µM.
With `O=C(CC(Nc1nc2ccccc2[nH]1)c1cccc(OC(F)(F)F)c1)NCc1ccon1` (centres unmarked) [Example 88, 3-[(1H-1,3-benzodiazol-2-yl)amino]-N-(1,2-oxazol-3-ylmethyl)-3-[3-(trifluoromethoxy)phenyl]propanamide], the IC50 was < 10 µM.
In the case of `CCN(CC(=O)OC)C(=O)CC(Nc1nc2ccccc2[nH]1)c1cccc(C(F)(F)F)c1` (centres unmarked) [Example 47, Methyl 2-{3-[(1H-1,3-benzodiazol-2-yl)amino]-N-ethyl-3-[3-(trifluoromethyl)phenyl]propanamido}acetate], the IC50 was < 10 µM.
Consider `COC(=O)CNC(=O)CC(Nc1nc2ccccc2[nH]1)c1cccc(C(F)(F)F)c1` (centres unmarked) [Example 59, Methyl 2-{3-[(1H-1,3-benzodiazol-2-yl)amino]-3-[3-(trifluoromethyl)phenyl]propanamido}acetate], for which the IC50 is < 10 µM.
Take `O=C(CC(Nc1nc2ccccc2[nH]1)c1cccc(C(F)(F)F)c1)NC1COC1` (centres unmarked) [Example 10, 3-[(1H-1,3-benzodiazol-2-yl)amino]-N-(oxetan-3-yl)-3-[3-(trifluoromethyl)phenyl]propanamide]: the IC50 is < 10 µM.
`O=C(CC(Nc1nc2ccccc2[nH]1)c1cccc(C(F)(F)F)c1)N1CC[C@H](O)C1` (stereo partly drawn) [Example 15, 3-[(1H-1,3-benzodiazol-2-yl)amino]-1-[(3S)-3-hydroxypyrrolidin-1-yl]-3-[3-(trifluoromethyl)phenyl]propan-1-one]: the IC50 is 10 to 100 µM.
Turning to `COCCNC(=O)CC(Nc1nc2cc(F)c(F)cc2[nH]1)c1cccc(C(F)(F)F)c1` (centres unmarked) [Example 95, 3-[(5,6-difluoro-1H-1,3-benzodiazol-2-yl)amino]-N-(2-methoxyethyl)-3-[3-(trifluoromethyl)phenyl]propanamide], the IC50 was 10 to 100 µM.
`CCc1cc(C(CC(=O)N(CC)CCO)Nc2nc3ccccc3[nH]2)ccc1F` (single isomer, unassigned; (-)) [Example 65a, (−)3-[(1H-1,3-benzodiazol-2-yl)amino]-N-ethyl-3-(3-ethyl-4-fluorophenyl)-N-(2-hydroxyethyl)propanamide]: the 50% inhibitory concentration (IC50) was < 10 µM.
Take `Cc1noc(C)c1CCNC(=O)CC(Nc1nc2ccccc2[nH]1)c1cccc(C(F)(F)F)c1` (centres unmarked) [Example 74, 3-[(1H-1,3-benzodiazol-2-yl)amino]-N-[2-(dimethyl-1,2-oxazol-4-yl)ethyl]-3-[3-(trifluoromethyl)phenyl]propanamide]: the IC50 was < 10 µM.
In the case of `CN(CC(N)=O)C(=O)CC(Nc1nc2ccccc2[nH]1)c1cccc(C(F)(F)F)c1` (centres unmarked) [Example 60, 3-[(1H-1,3-benzodiazol-2-yl)amino]-N-(carbamoylmethyl)-N-methyl-3-[3-(trifluoromethyl)phenyl]propanamide], the IC50 was in the range of 10 to 100 µM.
In the case of `CN(CC#N)C(=O)CC(Nc1nc2c(CCO)cccc2[nH]1)c1cccc(C(F)(F)F)c1` (centres unmarked) [Example 51, N-(cyanomethyl)-3-{[4-(2-hydroxyethyl)-1H-1,3-benzodiazol-2-yl]amino}-N-methyl-3-[3-(trifluoromethyl)phenyl]propanamide] it was 10 to 100 µM; in that of `CN(C)CCN(C)C(=O)C(Nc1nc2ccccc2[nH]1)c1cccc(C(F)(F)F)c1` (centres unmarked) [Example 25, 2-[(1H-1,3-benzodiazol-2-yl)amino]-N-[2-(dimethylamino)ethyl]-N-methyl-2-[3-(trifluoromethyl)phenyl]acetamide], 10 to 100 µM.
For the compound `CN(CCO)C(=O)C(Nc1nc2ccccc2[nH]1)c1cccc(C(F)(F)F)c1` (centres unmarked) [Example 30, 2-[(1H-1,3-benzodiazol-2-yl)amino]-N-(2-hydroxyethyl)-N-methyl-2-[3-(trifluoromethyl)phenyl]acetamide], the IC50 was < 10 µM.
In the case of `COCCN(C)C(=O)CC(Nc1nc2ccccc2[nH]1)c1cccc(C(F)(F)F)c1` (centres unmarked) [Example 43, 3-[(1H-1,3-benzodiazol-2-yl)amino]-N-(2-methoxyethyl)-N-methyl-3-[3-(trifluoromethyl)phenyl]propanamide] it was < 10 µM; in that of `COC[C@H](NC(=O)CC(Nc1nc2ccccc2[nH]1)c1cccc(SC(F)(F)F)c1)c1ccccc1` (single isomer, unassigned) [Example 70a], < 10 µM; in that of `CCN(CCO)C(=O)CC(Nc1nc2ccccc2[nH]1)c1ccc(C)c(Cl)c1` (centres unmarked) [Example 20, 3-[(1H-1,3-benzodiazol-2-yl)amino]-3-(3-chloro-4-methylphenyl)-N-ethyl-N-(2-hydroxyethyl)propanamide], < 10 µM.
With `CCN(CCO)C(=O)CC(Nc1nc2ccccc2[nH]1)c1ccc(Cl)c(C)c1` (single isomer, unassigned; (-)) [Example 40a, (−)3-[(1H-1,3-benzodiazol-2-yl)amino]-3-(4-chloro-3-methylphenyl)-N-ethyl-N-(2-hydroxyethyl)propanamide], the IC50 is < 10 µM.
Turning to `CCN(CCSC)C(=O)CC(Nc1nc2c(CO)cccc2[nH]1)c1cccc(C(F)(F)F)c1` (centres unmarked) [Example 58, N-ethyl-3-{[4-(hydroxymethyl)-1H-1,3-benzodiazol-2-yl]amino}-N-[2-(methylsulfanyl)ethyl]-3-[3-(trifluoromethyl)phenyl]propanamide], the half-maximal inhibitory concentration (IC50) is < 10 µM.
Regarding `COC(=O)CN(C)C(=O)CC(Nc1nc2ccccc2[nH]1)c1cccc(C(F)(F)F)c1` (single isomer, unassigned; (-)) [Example 57a, (−)Methyl 2-{3-[(1H-1,3-benzodiazol-2-yl)amino]-N-methyl-3-[3-(trifluoromethyl)phenyl]propanamido}acetate], the IC50 was < 10 µM.
For `O=C(CC(Nc1nc2ccccc2[nH]1)c1cccc(C(F)(F)F)c1)N1CC[C@@H](O)C1` (stereo partly drawn) [Example 14, 3-[(1H-1,3-benzodiazol-2-yl)amino]-1-[(3R)-3-hydroxypyrrolidin-1-yl]-3-[3-(trifluoromethyl)phenyl]propan-1-one], the IC50 was in the range of 10 to 100 µM.
On to `COCCNC(=O)CC(Nc1nc2c(OC)cccc2[nH]1)c1cccc(C(F)(F)F)c1` (centres unmarked) [Example 93, 3-[(4-methoxy-1H-1,3-benzodiazol-2-yl)amino]-N-(2-methoxyethyl)-3-[3-(trifluoromethyl)phenyl]propanamide], for which the IC50 is < 10 µM.
Turning to `COCCNC(=O)CC(Nc1nc2ccccc2[nH]1)c1cccc(SC)c1` (centres unmarked) [Example 92, 3-[(1H-1,3-benzodiazol-2-yl)amino]-N-(2-methoxyethyl)-3-[3-(methylsulfanyl)phenyl]propanamide], the IC50 was < 10 µM.
In the case of `O=C(CC(Nc1nc2ccccc2[nH]1)c1cccc(C(F)(F)F)c1)NCc1nc2ccccc2o1` (centres unmarked) [Example 72, 3-[(1H-1,3-benzodiazol-2-yl)amino]-N-(1,3-benzoxazol-2-ylmethyl)-3-[3-(trifluoromethyl)phenyl]propanamide] it was < 10 µM.
With `CCN(CCO)C(=O)C(Nc1nc2ccccc2[nH]1)c1cccc(C(F)(F)F)c1` (single isomer, unassigned; (-)) [Example 38a, (−)2-[(1H-1,3-benzodiazol-2-yl)amino]-N-ethyl-N-(2-hydroxyethyl)-2-[3-(trifluoromethyl)phenyl]acetamide], the 50% inhibitory concentration (IC50) was < 10 µM.
In the case of `COC[C@H](NC(=O)CC(Nc1nc2ccccc2[nH]1)c1cccc(C(F)(F)F)c1)c1ccccc1` (single isomer, unassigned) [Example 69a] it was < 10 µM.
Consider `CCN(CC#N)C(=O)CC(Nc1nc2ccccc2[nH]1)c1cccc(C(F)(F)F)c1` (centres unmarked) [Example 55, 3-[(1H-1,3-benzodiazol-2-yl)amino]-N-(cyanomethyl)-N-ethyl-3-[3-(trifluoromethyl)phenyl]propanamide], for which the 50% inhibitory concentration (IC50) is < 10 µM.
In the case of `CN(C)CCN(C)C(=O)CC(Nc1nc2ccccc2[nH]1)c1cccc(C(F)(F)F)c1` (centres unmarked) [Example 2, 3-[(1H-1,3-benzodiazol-2-yl)amino]-N-[2-(dimethylamino)ethyl]-N-methyl-3-[3-(trifluoromethyl)phenyl]propanamide] it was 10 to 100 µM.

By IC50 is commonly meant the concentration that gives 50% inhibition.

(Values after US11274092B2, “Potassium channel inhibitors” (ACESION PHARMA ApS, priority 2016, dated 2022).)
